From PMC8807399, “Synthesis, Characterization, and in vivo Evaluation of a Novel Potent Autotaxin-Inhibitor” (Frontiers in Pharmacology, 2022)
In brackets after ≈: the same amount, converted by molar mass.

Key:
[1] = In vitro microsomal stability, mouse; type: in vitro ADME; conditions: mouse microsomes, 1 µM; value of 10 = low clearance, essentially below detection limit
Description: (§1) Incubations of a test compound at a concentration of 1 µM with microsomes (0.5 mg/ml) from the appropriate species (human, mouse, or rat) plus cofactor NADPH were performed in 96-well plates at 37°C on a TECAN automated liquid handling system (Tecan Group Ltd., Männedorf, Switzerland). After pre-incubation of the test compound with the microsomes for 10 min, the enzymatic reaction was started by the addition of cofactors. Aliquots of the incubations are removed at 1, 3, 6, 9, 15, 25, 35, and 45 min and are then quenched with 1:3 (v/v) acetonitrile containing internal standards. Samples were then cooled and centrifuged before analysis of the supernatant by LC-MS/MS. Logarithmic Peak area ratios (test compound peak area/internal standard peak area) were plotted against incubation time and a linear fit made to the data with emphasis upon the initial rate of compound disappearance. The slope of the fit was then used to calculate the intrinsic clearance: Clint (µL/min/mg protein) = −slope (min-1) * 1,000/[protein concentration (mg/ml)].

[2] = In vitro microsomal stability, rat; type: in vitro ADME; conditions: rat microsomes, 1 µM; value of 10 = low clearance, essentially below detection limit
Description: as §1

[3] = In vitro microsomal stability, human; type: in vitro ADME; conditions: human microsomes, 1 µM; value of 10 = low clearance, essentially below detection limit
Description: as §1

HT-solubility assay = type: physicochemical; conditions: aqueous buffer, thermodynamic from solid; phosphate buffer pH 6.5
Description: This assay was performed on a TECAN station starting from 10 mM DMSO stock solutions of the test compounds. Two aliquots of the test compound were dried and dissolved in phosphate buffer at pH 6.5. Sonication supports optimal re-solubilization. The solutions were then filtered and diluted (3 different dilution levels for each compound) followed by quantification of the dissolved material with Rapid-Fire MS. Quantification was performed for each test compound with a 6-point calibration curve prepared with the same DMSO starting solution.

[4] = Glutathione addition screening; type: in vitro ADME; conditions: human liver microsomes + NADPH + GSH
Description: All sample handling was performed based on a 96-well plate format using an automated pipetting system. The test compounds, positive controls (diclofenac, troglitazone, nefazodone, 4-[[1-(4-fluorophenyl)-2-methyl-1H-imidazol-4-yl]ethynyl]-2-methylpyridine) and solvent control (DMSO) were incubated with human liver microsomes supplemented with NADPH and reduced GSH. Stable GSH conjugates whose production can be assumed to be the result of chemically reactive metabolites were detected using a quadrupole time of flight mass spectrometer run in untargeted full scan accurate mass MSE mode (Waters Xevo G1 QTOFMSE; Waters GmbH, Eschborn, Germany). This generic GSH adduct detection method and the assay workflow are taking advantage of the specific fragmentation behavior of the peptide moiety upon collision induced dissociation of GSH adducts and so are largely independent of the conjugate (“X”) itself.

Single dose PK in rats = type: in vivo; conditions: rat; for AUC(0-inf) / half-life / clearance / Vd / Cmax / Tmax: plasma; for clearance: read-out: CLp; for Vd: read-out: Vdss
Description: Exposures in animals treated with ATX-inhibitors were determined from K2EDTA treated plasma by LC-MS/MS at different time points. 25 µL of plasma was used for a single concentration determination. Concentration/time profiles were analyzed with MS Excel (Microsoft Corporation, Redmond, WA, United States).
For PK experiments for 7, 13, 14, and 15, respectively, animals were treated either iv or po and exposures were determined at different time points after compound administration. Suitable formulations for 13 were, for example, NMP:Tris buffer pH 8.5 (30%/70%) for iv administration with a nominal drug concentration of 1 mg/ml (dose 2 mg/kg) and a suspension in NMP:gelatine/NaCl (10%/90%) for po administration with a nominal drug concentration of 2.5 mg/ml (dose 10 mg/kg). PK parameters in Table 2 were estimated from the concentration time profiles using Phoenix WinNonlin software (Certara, Princeton, NJ, United States).

human ATX = biological target: T1, human ATX (Homo sapiens, UniProt Q13822); test: Autotaxin inhibition assay (Amplex-Red); type: biochemical; conditions: ATX 3 nM, LPC 18:1 30 μM, read-out: hATX IC50
T1 construct: made in house
Description: Plates were sealed and incubated for 5 min. The final assay concentrations were ATX 3 nM, choline oxidase 2 U/ml, horseradish peroxidase 4 U/ml, LPC 18:1 30 μM, Amplex Red 50 μM, and DMSO 2%.

[5] = Artificial membrane permeability assay; type: in vitro ADME; conditions: PAMPA, read-out: Permeability Pe
Description: The assay was performed in an automated fashion on 96-well microplates. The permeation of drugs was measured using a “sandwich” construction: A filter-plate was coated with phospholipids (membrane) and placed into a donor compartment containing a compound/buffer solution. Finally, the top of filter-plate was filled with buffer solution (acceptor). Donor concentration was measured at t-start (reference) and compared with the donor and acceptor concentration after a certain time (t-end) to calculate the extent of passage of the compound through the membrane. The main readout of the assay was the permeability value Pe expressed in 10^–6 * cm/s. Secondary readouts determined were the amount of compound in the donor and acceptor compartments as well as the retention in the membrane. Depending on the permeation rate and the membrane retention the compounds were classified as low (Pe < 0.2 and membrane < 20%) or medium and high (Pe ≥ 0.2 or Pe < 0.2 and membrane ≥ 20%). Each sample was measured in triplicate and a standard deviation was determined for the permeation constant Pe.

[6] = Lipophilicity (LogD, octanol/buffer); type: physicochemical; conditions: 1-octanol / 25 mM phosphate buffer; pH 7.4, octanol/25 mM phosphate buffer
Description: The experiment started with the accurate coating of the hydrophobic layer (0.45 µm PVDF membranes), which was fixed on the bottom of each DIFI©-tube (Weidmann Medical Technology AG, Rapperswil, Switzerland). The coated membranes were then connected to a 96-well plate which has been prefilled with exactly 150 µl of the selected aqueous buffer solution (25 mM phosphate buffer, pH 7.4). The buffer solution contains already the compound of interest with a maximum starting concentration of 85 µM. To expand the measurement range down to logD = −0.5 and up to logD = +4, it is necessary to carry out the procedure at two different octanol/water ratios: One with an excess of octanol for hydrophilic compounds (logD < 1) and one with a low volume of octanol for the lipophilic compounds (logD > 1). Therefore, parts of the DIFI©-tubes were filled with 15 µl 1-octanol and another part with 1 µl 1-octanol. The resulting sandwich guarantees that the membrane was completely dipped in the buffer solution. The plate was then sealed and shaken for 12 h at room temperature (23°C). During this time, the substance is distributed between the layer, the octanol, and the buffer solution. After having reached a distribution equilibrium, the DIFI©-tubes were easily disassembled from the top of the 96-well plate, so that the remaining sample concentration in the aqueous phase could be analyzed by LC/MS.

| Compound | Mic CL m [1] | Mic CL r [2] | Mic CL h [3] | solubility (HT-solubility assay) | GSH adducts [4] | AUC(0-inf) (Single dose PK in rats; iv bolus, 3 mg/kg) | half-life (Single dose PK in rats; iv bolus, 3 mg/kg) | clearance (Single dose PK in rats; iv bolus, 3 mg/kg) | Vd (Single dose PK in rats; iv bolus, 3 mg/kg) | AUC(0-inf) (Single dose PK in rats; oral gavage, 30 mg/kg) | Cmax (Single dose PK in rats; oral gavage, 30 mg/kg) | Tmax (Single dose PK in rats; oral gavage, 30 mg/kg) | half-life (Single dose PK in rats; oral gavage, 30 mg/kg) | Oral F (Single dose PK in rats; oral gavage, 30 mg/kg) | IC50 (human ATX) | Papp [5] | logD at 12 h [6] |
| --- | --- | --- | --- | --- | --- | --- | --- | --- | --- | --- | --- | --- | --- | --- | --- | --- | --- |
| O=C(CCc1ccc(OC(F)(F)F)cc1)N1C[C@@H]2CN(C(=O)c3ccc4[nH]nnc4c3)C[C@H]2C1 [Compound 14, 1-[(3aR,6aR)-5-(1H-benzotriazole-5-carbonyl)-hexahydro-pyrrolo[3,4-c]pyrrol-2-yl]-3-(4-trifluoromethoxy-phenyl)-propan-1-one] | 27 µL/m/mg prot | 40 µL/m/mg prot | 10 µL/m/mg prot | 46 µg/mL (≈ 97.2 µM) | Neg | 1070 ng·h/mL | 78 min | 47 mL/min/kg | 0.9 L/kg | 660 ng·h/mL | 130 ng/mL | 30 min | 228 min | 6% | 6 nM | 2.7 ×10⁻⁶ cm/s | 2.5 |
| CS(=O)(=O)c1cc(Cl)cc(COC(=O)N2C[C@@H]3CN(C(=O)c4ccc5[nH]nnc5c4)C[C@H]3C2)c1 [Compound 15, (3aS,6aS)-5-(1H-Benzotriazole-5-carbonyl)-hexahydro-pyrrolo[3,4-c]pyrrole-2-carboxylic acid 3-chloro-5-methanesulfonyl-benzyl ester] | 10/10/na µL/m/mg prot |  | 10/10/na µL/m/mg prot | 190 µg/mL (≈ 377 µM) | Neg | 321 ng·h/mL | 21 min | 156 mL/min/kg | 1.7 L/kg | 30 ng·h/mL | 18 ng/mL | 15 min | 114 min | 1.1% | 8 nM | 0.4 ×10⁻⁶ cm/s | 2 |
| O=C(COc1ccc(OC(F)(F)F)cc1)N1C[C@@H]2CN(C(=O)c3ccc4[nH]nnc4c3)C[C@H]2C1 [Compound 12, 1-[(3aS,6aS)-5-(1H-Benzotriazole-5-carbonyl)-hexahydro-pyrrolo[3,4-c]pyrrol-2-yl]-2-(4-trifluoromethoxy-phenoxy)-ethanone] |  | 10/na/10 µL/m/mg prot | 10/na/10 µL/m/mg prot | 8 µg/mL (≈ 16.8 µM) | Neg |  |  |  |  |  |  |  |  |  | 137 nM | 1.8 ×10⁻⁶ cm/s | 3.2 |
